The supplement of paper PMC5908809

Assays:
[1] = tested on: normal NK cells expanded with K562-aAPC; test: percent inhibition of viability; higher = more inhibition; conditions: 72 h, IL-2 2.5 ng/mL
Method: (§1)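 Drug sensitivity and resistance testing on K562-aAPC-expanded normal NK cells: 5 concentrations (10-fold steps over a 10,000-fold range), 72 h at 37 °C, viability by CellTiter-Glo normalised to DMSO and benzethonium chloride controls; DSS from the fitted curve.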

[2] = tested on: DERL-7 (IL-2 2.5 ng/mL); test: as above; conditions: 72 h
[3] = tested on: IMC-1 (IL-2 20 ng/mL); test: as above; conditions: 72 h
[4] = tested on: KAI3 (IL-2 2.5 ng/mL); test: as above; conditions: 72 h
[5] = tested on: KHYG-1 (IL-2 2.5 ng/mL); test: as above; conditions: 72 h
[6] = tested on: NK-92 (IL-2 2.5 ng/mL); test: as above; conditions: 72 h
[7] = tested on: NK-YS (IL-2 2.5 ng/mL); test: as above; conditions: 72 h
[8] = tested on: NKL (IL-2 2.5 ng/mL); test: as above; conditions: 72 h
[9] = tested on: SNK-6 (IL-2 2.5 ng/mL); test: as above; conditions: 72 h
[10] = tested on: YT (IL-2 2.5 ng/mL); test: as above; conditions: 72 h
[11] = tested on: normal primary NK cells, pool 1 (3 donors) (IL-2 2.5 ng/mL); test: as above; conditions: 72 h
[12] = tested on: normal primary NK cells, pool 1 (3 donors), resting (IL-2 0 ng/mL); test: as above; conditions: 72 h
[13] = tested on: normal primary NK cells, pool 2 (3 donors) (IL-2 2.5 ng/mL); test: as above; conditions: 72 h
[14] = tested on: normal primary NK cells, pool 3 (3 donors) (IL-2 2.5 ng/mL); test: as above; conditions: 72 h
[15] = tested on: normal NK cells expanded with K562-aAPC; test: drug sensitivity score (DSS) (DSS units); higher = more sensitive; extreme values may be limits of the assay; conditions: 72 h; IL-2 2.5 ng/mL
Method: as §1

[16] = tested on: DERL-7 (IL-2 2.5 ng/mL); test: as above; conditions: 72 h
[17] = tested on: IMC-1 (IL-2 20 ng/mL); test: as above; conditions: 72 h
[18] = tested on: KAI3 (IL-2 2.5 ng/mL); test: as above; conditions: 72 h
[19] = tested on: KHYG-1 (IL-2 2.5 ng/mL); test: as above; conditions: 72 h
[20] = tested on: NK-92 (IL-2 2.5 ng/mL); test: as above; conditions: 72 h
[21] = tested on: NK-YS (IL-2 2.5 ng/mL); test: as above; conditions: 72 h
[22] = tested on: NKL (IL-2 2.5 ng/mL); test: as above; conditions: 72 h
[23] = tested on: SNK-6 (IL-2 2.5 ng/mL); test: as above; conditions: 72 h
[24] = tested on: YT (IL-2 2.5 ng/mL); test: as above; conditions: 72 h
[25] = tested on: normal primary NK cells, pool 1 (3 donors) (IL-2 2.5 ng/mL); test: as above; conditions: 72 h
[26] = tested on: normal primary NK cells, pool 1 (3 donors), resting (IL-2 0 ng/mL); test: as above; conditions: 72 h
[27] = tested on: normal primary NK cells, pool 2 (3 donors) (IL-2 2.5 ng/mL); test: as above; conditions: 72 h
[28] = tested on: normal primary NK cells, pool 3 (3 donors) (IL-2 2.5 ng/mL); test: as above; conditions: 72 h

C=C(c1ccc(C(=O)O)cc1)c1cc2c(cc1C)C(C)(C)CCC2(C)C [Bexarotene] (max concentration tested 10000 nM)
percent inhibition of viability [%]
Conditions | 1 nM | 10 nM | 100 nM | 1000 nM | 10000 nM
[1] | -0.13 | -7.46 | -13.6 | -8.25 | -6.11
[2] | -1.72 | -14.1 | -7.53 | 1.51 | 6.9
[3] | -7.44 | -4.67 | -6.9 | -7.39 | 14.5
[4] | -2.82 | 4.02 | 5.5 | 12.6 | 29.6
[5] | 0.07 | -1.61 | 31.4 | 35.3 | 42.5
[6] | -0.26 | -14.3 | 18 | 38.2 | 32.8
[7] | -0.63 | -6.05 | 10.2 | 30.5 | 40.5
[8] | -2.63 | -4.9 | 33.7 | 59.2 | 80.4
[9] | -4.84 | -4.27 | 10 | 4.19 | 25.4
[10] | 1.74 | -2.56 | 5.09 | 22.2 | 38.4
[11] | 2.65 | 3.77 | 5.07 | -0.78 | 2.54
[12] | 6.01 | -4.44 | -0.24 | 2.22 | 15.6
[13] | -3.26 | -9.74 | -11.1 | -7.66 | 2.35
[14] | -2.37 | -1.77 | 4 | -8.07 | -0.96

Conditions | drug sensitivity score
[15] | 0
[16] | 0
[17] | 0.08
[18] | 2.32
[19] | 11.4
[20] | 9.12
[21] | 6.37
[22] | 15.3
[23] | 1.61
[24] | 4.39
[25] | 0
[26] | 0.5
[27] | 0
[28] | 0

Cc1c(N)nc([C@H](CC(N)=O)NC[C@H](N)C(N)=O)nc1C(=O)N[C@H](C(=O)N[C@H](C)[C@@H](O)[C@H](C)C(=O)N[C@H](C(=O)NCCc1nc(-c2nc(C(=O)NCCC[S+](C)C)cs2)cs1)[C@@H](C)O)[C@@H](OC1OC(CO)C(O)C(O)C1OC1OC(CO)C(O)C(OC(N)=O)C1O)c1cnc[nH]1 (stereo partly drawn) [Bleomycin] (max concentration tested 10000 nM)
percent inhibition of viability [%]
Conditions | 1 nM | 10 nM | 100 nM | 1000 nM | 10000 nM
[1] | 3.15 | -1.5 | 7.63 | 34.1 | 62.5
[2] | 0.04 | -2.28 | 1.21 | 29.5 | 78.2
[3] | -0.57 | -6.19 | 5.49 | 17.2 | 56.8
[4] | -4.06 | -8.69 | 8.99 | 52.9 | 77
[5] | -3.86 | -5.7 | -1.32 | 7.38 | 67.6
[6] | -18 | -20.7 | 13.2 | 60.3 | 99
[7] | -1.93 | -5.64 | 6.84 | 52.8 | 81.4
[8] | -14.6 | -9.35 | -1.37 | 39.7 | 96.6
[9] | 9.29 | 19.8 | 68.8 | 97 | 101
[10] | -2.74 | -1.16 | 1.84 | 13.3 | 51.6
[11] | -8.98 | 2.35 | -2.19 | 6.69 | 52.9
[12] | -6.18 | -0.23 | -9.89 | -6.49 | 82
[13] | -11.5 | -5.49 | -1.39 | 19.4 | 73.8
[14] | -10.1 | -1.71 | 12.2 | 27.9 | 68.2

Conditions | drug sensitivity score
[15] | 7.53
[16] | 8.38
[17] | 5.31
[18] | 11.2
[19] | 4.93
[20] | 13.2
[21] | 11.1
[22] | 10.6
[23] | 27.6
[24] | 4.81
[25] | 3.94
[26] | 4.07
[27] | 7.05
[28] | 6.94
